Experimental data as given in US6545010B2, “Composition comprising camptothecin or a camptothecin derivative and a platin derivative for the treatment of cancer” (priority 2000, dated 2003).

How the values were obtained:
P388/CPT = assay: Chemosensitivity of camptothecin-resistant i.p. P388/CPT leukemia, increase in life span; assay type: in vivo, mice; details: for %ILS: P388/CPT, highest non-toxic dose
Procedure: (§1) Cross-resistance was measured in murine leukemia cell lines.
(§2) ILS=100×[(median day of death (MDD) of treated mice)−(MDD control mice)]÷(MDD control mice)
(§3) Table III tabulates the results from this study.

Colon Adenocarcinoma C51 = assay: CPT-11, cisplatin and combination, three-arm study in mice bearing colon adenocarcinoma C51; details: for LCK / HNTD Dose: C51 sc; for T/C: tumor growth delay
Procedure: This efficacy may be quantified, for example, by the log10 cell kill, which is determined by the following formula: […]
An agent is considered to be active if log10 cell kill is greater than or equal to 0.7. An agent is considered to be very active if the log10 cell kill is greater than 2.8.
In the first arm, four dose levels of CPT-11 were given orally on days four through seven, twice daily. […] This third arm illustrated an example of semi-simultaneous administration.
The LD10 for the single agent was obtained by plotting the toxicity of that agent and the dosage in mg/kg as a log probit graph. Subsequently, the CTI LD10 was obtained by plotting as a log probit graph the observed lethality and the corresponding CTI calculated as the sum of the fraction of the LD10 of each single agent.

[1] = Tolerance and maximum tolerated dose of oral vs i.v. irinotecan in tumor bearing mice; assay type: in vivo; details: all five tumor models, three mice strains
Procedure: (§4) The effectiveness of irinotecan combination chemotherapy methods were tested in a dose response study in a murine tumor model. Three arms were evaluated for tolerance and efficacy. Tolerance was measured by mortality, body weight loss at nadir, host recovery time, and combination toxicity index. Efficacy end points for solid tumor models were tumor growth delay (T/C), log10 cell kill (LCK, defined above), tumor regressions (i.e., complete remission (CR), or partial remission (PR)). For non-solid tumors, such as leukemia, efficacy was measured as the increase in life span (ILS).

[2] = system: Glasgow osteosarcoma (GOS); assay: CPT-11 i.v. with oxaliplatin i.v., GOS sc; assay type: in vivo, mice
Procedure: as §4

P388 = assay: Chemosensitivity of P388 leukemia, increase in life span; assay type: in vivo, mice; details: P388, agent i.v., highest non-toxic dose
Procedure: as §1, §2, §3

[3] = system: Glasgow osteosarcoma (GOS); assay: CPT-11 p.o. with oxaliplatin i.v., GOS sc; assay type: in vivo, mice; details: days 4-8
Procedure: as §4

[4] = CPT-11 p.o. 31.5 mg/kg/adm, days 4-7 twice/day
[5] = CPT-11 p.o. 50.8 mg/kg/adm, days 4-7 twice/day
[6] = Cisplatin i.v. 1.9 mg/kg/adm, days 4, 7
[7] = Cisplatin i.v. 3.1 mg/kg/adm, days 4, 7

CC[C@@]1(O)C(=O)OCc2c1cc1n(c2=O)Cc2cc3ccccc3nc2-1 [CPT, camptothecin]
Comment (sensitivity of P388/CPT) (P388/CPT; agent s.c.): resistant

CCc1c2c(nc3ccc(OC(=O)N4CCC(N5CCCCC5)CC4)cc13)-c1cc3c(c(=O)n1C2)COC(=O)[C@]3(O)CC [CPT-11, irinotecan]
Comment (sensitivity of P388/CPT) (P388/CPT; agent i.v.): resistant | LCK (Colon Adenocarcinoma C51; CPT-11 p.o. alone at HNTD, days 4-7, twice daily): 1.1 | HNTD Dose (Colon Adenocarcinoma C51; CPT-11 p.o. alone, days 4-7, twice daily): 406 mg/kg | Comments (Colon Adenocarcinoma C51; [4]): Marginal Activity | Log10 cell kill (Colon Adenocarcinoma C51; [4]): 0.7 | Time for Median tumor to reach 1000 mg (Colon Adenocarcinoma C51; [4]): 25.5 days | T/C (Colon Adenocarcinoma C51; [4]): 6.0 days | Time for Median tumor to reach 1000 mg (Colon Adenocarcinoma C51; [5]): 29.4 days | T/C (Colon Adenocarcinoma C51; [5]): 9.9 days | efficacy in tumor bearing mice, oral vs i.v. administration [1]: similar | HNTD Dose ([2]; CPT-11 i.v. alone, days 3, 5, 7 twice daily): 349.8 mg/kg

N.N.[Cl][Pt][Cl] [Cisplatin, cis-diaminedichloroplatinum]
%ILS (P388/CPT; agent i.v.): 153% | Comment (sensitivity of P388/CPT) (P388/CPT; agent i.v.): sensitive | LCK (Colon Adenocarcinoma C51; cisplatin i.v. alone at HNTD, days 4, 7): 3.3 | HNTD Dose (Colon Adenocarcinoma C51; cisplatin i.v. alone, days 4, 7): 6.2 mg/kg | Log10 cell kill (Colon Adenocarcinoma C51; [6]): 1.3 | Time for Median tumor to reach 1000 mg (Colon Adenocarcinoma C51; [6]): 30.8 days | T/C (Colon Adenocarcinoma C51; [6]): 11.3 days | Log10 cell kill (Colon Adenocarcinoma C51; [7]): 3.3 | Time for Median tumor to reach 1000 mg (Colon Adenocarcinoma C51; [7]): 48.1 days | T/C (Colon Adenocarcinoma C51; [7]): 28.6 days | %ILS (P388): 73%

O=C1[O][Pt]2([NH][C@@H]3CCCC[C@H]3[NH]2)[O]C1=O [Oxaliplatin, oxaliplatin]
%ILS (P388/CPT; agent i.v.): 86% | Comment (sensitivity of P388/CPT) (P388/CPT; agent i.v.): sensitive | LCK ([3]; oxaliplatin i.v. alone at HNTD): 2.0 | HNTD Dose ([3]; oxaliplatin i.v. alone): 16.0 mg/kg | %ILS (P388): 0% | LCK ([2]; oxaliplatin i.v. alone at HNTD, days 3, 5, 7): 2.3 | HNTD Dose ([2]; oxaliplatin i.v. alone, days 3, 5, 7): 10.2 mg/kg
